In patent US11597702B2, “Substituted pyrazoles FFA4/GPR120 receptor agonists” (AXXAM S.P.A., priority 2018, dated 2023):

Biological target: T1, GPR120 (Homo sapiens, UniProt Q5NUL3)
T1 construct: expressed in transfected cells; host or cells: CHO mitoPhotinaGPR120 cells
T1 sequence (Q5NUL3 1-361): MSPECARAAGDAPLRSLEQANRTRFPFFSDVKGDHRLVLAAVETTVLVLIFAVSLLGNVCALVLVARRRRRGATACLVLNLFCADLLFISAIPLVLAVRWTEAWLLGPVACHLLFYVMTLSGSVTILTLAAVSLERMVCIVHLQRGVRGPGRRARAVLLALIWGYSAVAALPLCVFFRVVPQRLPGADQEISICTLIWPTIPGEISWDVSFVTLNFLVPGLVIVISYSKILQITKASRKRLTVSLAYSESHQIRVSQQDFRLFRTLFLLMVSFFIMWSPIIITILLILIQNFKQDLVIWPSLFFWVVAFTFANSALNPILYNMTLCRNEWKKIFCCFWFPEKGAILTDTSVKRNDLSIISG
Experiment: GPR120 agonism in CHO mitoPhotinaGPR120 cell based assay with fluorescent (Fluo-8 calcium, FLIPRTetra) readout, Agonist Mode, dose response
Details: CHO mitoPhotinaGPR120 cells, Fluo-8 No Wash Ca2+ dye, dose response in quadruplicate, 0.0033% fatty acid free BSA

| SMILES | EC50 [µM] |
| --- | --- |
| Cc1nn(-c2ccc(C(F)(F)F)cc2)c(COc2ccc(CCO)cc2)c1C#N [Example 109, 5-[[4-(2-hydroxyethyl)phenoxy]methyl]-3-methyl-1-[4-(trifluoromethyl)phenyl]pyrazole-4-carbonitrile] | 3.22 |
| Cc1nn(-c2c(F)cccc2F)c(COc2ccc(CCO)cc2)c1C#N [Example 112, 1-(2,6-difluorophenyl)-5-[[4-(2-hydroxyethyl)phenoxy]methyl]-3-methyl-pyrazole-4-carbonitrile] | 10.2 |
| Cc1nn(-c2ccc(F)cc2F)c(COc2ccc(CCO)cc2)c1C#N [Example 114, 1-(2,4-difluorophenyl)-5-[[4-(2-hydroxyethyl)phenoxy]methyl]-3-methyl-pyrazole-4-carbonitrile] | 5.55 |
| Cc1nn(-c2ccc(OC(F)(F)F)cc2)c(COc2ccc(CCO)cc2)c1C#N [Example 115, 5-[[4-(2-hydroxyethyl)phenoxy]methyl]-3-methyl-1-[4-(trifluoromethoxy)phenyl]pyrazole-4-carbonitrile] | 4.62 |
| Cc1nn(-c2ccc(Cl)nn2)c(COc2ccc(CCO)cc2)c1C#N [Example 116, 1-(6-chloropyridazin-3-yl)-5-[[4-(2-hydroxyethyl)phenoxy]methyl]-3-methyl-pyrazole-4-carbonitrile] | 1.63 |
| Cc1nn(C2CCCC2)c(COc2ccc(CCO)cc2)c1C#N [Example 117, 1-cyclopentyl-5-[[4-(2-hydroxyethyl)phenoxy]methyl]-3-methyl-pyrazole-4-carbonitrile] | 1.2 |
| Cc1nn(C2CCCCC2)c(COc2ccc(CCO)cc2)c1C#N [Example 118, 1-cyclohexyl-5-[[4-(2-hydroxyethyl)phenoxy]methyl]-3-methyl-pyrazole-4-carbonitrile] | 2.24 |
| Cc1cc(COc2ccc(CCO)cc2)n(-c2ccccc2)n1 [Example 126, 2-[4-[(5-methyl-2-phenyl-pyrazol-3-yl)methoxy]phenyl]ethanol] | 5.92 |
| N#Cc1cnn(-c2ccccc2)c1COc1ccc(CCO)cc1 [Example 129, 5-[[4-(2-hydroxyethyl)phenoxy]methyl]-1-phenyl-pyrazole-4-carbonitrile] | 3.33 |
| N#Cc1cnn(-c2ccccc2)c1COc1ccc(CCCO)cc1 [Example 130, 5-[[4-(3-hydroxypropyl)phenoxy]methyl]-1-phenyl-pyrazole-4-carbonitrile] | 0.19 |
| Cc1nn(-c2ccccc2)c(COc2c(F)cc(CCC(=O)O)cc2F)c1C#N [Example 133, 3-[4-[(4-cyano-5-methyl-2-phenyl-pyrazol-3-yl)methoxy]-3,5-difluoro-phenyl]propanoic acid] | 9.73 |
| Cc1nn(-c2ccccc2)c(COc2ccc(CCC3CCNCC3)cc2)c1C#N [Example 136, 3-methyl-1-phenyl-5-[[4-[2-(4-piperidyl)ethyl]phenoxy]methyl]pyrazole-4-carbonitrile] | 17.7 |
| Cc1nn(-c2ccccc2)c(COc2ccc(-c3nc(CO)cs3)cc2)c1C#N [Example 146, 5-[[4-[4-(hydroxymethyl)thiazol-2-yl]phenoxy]methyl]-3-methyl-1-phenyl-pyrazole-4-carbonitrile] | 3.36 |
| Cc1nn(-c2ccccc2)c(COc2ccc(CO)cc2C(F)(F)F)c1C#N [Example 147, 5-[[4-(hydroxymethyl)-2-(trifluoromethyl)phenoxy]methyl]-3-methyl-1-phenyl-pyrazole-4-carbonitrile] | 1.49 |
| Cc1nn(-c2ccccn2)c(COc2ccc(CCCO)cc2)c1C#N [Example 149, 5-[[4-(3-hydroxypropyl)phenoxy]methyl]-3-methyl-1-(2-pyridyl)pyrazole-4-carbonitrile] | 0.15 |
| Cc1ccc(-n2nc(C)c(C#N)c2COc2ccc(CCCO)cc2)cc1 [Example 150, 5-[[4-(3-hydroxypropyl)phenoxy]methyl]-3-methyl-1-(p-tolyl)pyrazole-4-carbonitrile] | 0.15 |
| CCc1ccc(-n2nc(C)c(C#N)c2COc2ccc(CCCO)cc2)cc1 [Example 151, 1-(4-ethylphenyl)-5-[[4-(3-hydroxypropyl)phenoxy]methyl]-3-methyl-pyrazole-4-carbonitrile] | 0.24 |
| Cc1nn(-c2ccc(Cl)cc2)c(COc2ccc(CCCO)cc2)c1C#N [Example 152, 1-(4-chlorophenyl)-5-[[4-(3-hydroxypropyl)phenoxy]methyl]-3-methyl-pyrazole-4-carbonitrile] | 0.51 |
| Cc1nn(C2CCCC2)c(COc2ccc(CCCO)cc2)c1C#N [Example 153, 1-cyclopentyl-5-[[4-(3-hydroxypropyl)phenoxy]methyl]-3-methyl-pyrazole-4-carbonitrile] | 0.18 |
| Cc1nn(-c2ccc(F)cn2)c(COc2ccc(CCCO)cc2)c1C#N [Example 154, 1-(5-fluoro-2-pyridyl)-5-[[4-(3-hydroxypropyl)phenoxy]methyl]-3-methyl-pyrazole-4-carbonitrile] | 0.21 |
| Cc1nn(-c2ccc(Cl)cn2)c(COc2ccc(CCCO)cc2)c1C#N [Example 155, 1-(5-chloro-2-pyridyl)-5-[[4-(3-hydroxypropyl)phenoxy]methyl]-3-methyl-pyrazole-4-carbonitrile] | 0.81 |
| Cc1ccc(-n2nc(C)c(C#N)c2COc2ccc(CCCO)cc2)nc1 [Example 156, 5-[[4-(3-hydroxypropyl)phenoxy]methyl]-3-methyl-1-(5-methyl-2-pyridyl)pyrazole-4-carbonitrile] | 0.19 |
| COc1ccc(-n2nc(C)c(C#N)c2COc2ccc(CCCO)cc2)nc1 [Example 157, 5-[[4-(3-hydroxypropyl)phenoxy]methyl]-1-(5-methoxy-2-pyridyl)-3-methyl-pyrazole-4-carbonitrile] | 0.28 |
| Cc1nn(-c2ccccn2)c(COc2c(F)cc(CCCO)cc2F)c1C#N [Example 158, 5-[[2,6-difluoro-4-(3-hydroxypropyl)phenoxy]methyl]-3-methyl-1-(2-pyridyl)pyrazole-4-carbonitrile] | 0.13 |
| Cc1ccc(-n2nc(C)c(C#N)c2COc2c(F)cc(CCCO)cc2F)cc1 [Example 159, 5-[[2,6-difluoro-4-(3-hydroxypropyl)phenoxy]methyl]-3-methyl-1-(p-tolyl)pyrazole-4-carbonitrile] | 0.19 |
| CCc1ccc(-n2nc(C)c(C#N)c2COc2c(F)cc(CCCO)cc2F)cc1 [Example 160, 5-[[2,6-difluoro-4-(3-hydroxypropyl)phenoxy]methyl]-1-(4-ethylphenyl)-3-methyl-pyrazole-4-carbonitrile] | 0.3 |
| COc1ccc(-n2nc(C)c(C#N)c2COc2c(F)cc(CCCO)cc2F)cc1 [Example 161, 5-[[2,6-difluoro-4-(3-hydroxypropyl)phenoxy]methyl]-1-(4-methoxyphenyl)-3-methyl-pyrazole-4-carbonitrile] | 0.23 |
| Cc1nn(-c2ccc(Cl)cc2)c(COc2c(F)cc(CCCO)cc2F)c1C#N [Example 162, 1-(4-chlorophenyl)-5-[[2,6-difluoro-4-(3-hydroxypropyl)phenoxy]methyl]-3-methyl-pyrazole-4-carbonitrile] | 0.43 |
| Cc1nn(C2CCCC2)c(COc2c(F)cc(CCCO)cc2F)c1C#N [Example 163, 1-cyclopentyl-5-[[2,6-difluoro-4-(3-hydroxypropyl)phenoxy]methyl]-3-methyl-pyrazole-4-carbonitrile] | 0.099 |
